{"source": "paper PMC5484485", "about": "“In vitro and in vivo effects of kisspeptin antagonists p234, p271, p354, and p356 on GPR54 activation” (PLoS ONE, 2017)", "key": {"plasma LH concentration": {"system": "plasma LH concentration", "test": "Plasma LH in anestrous Beagle bitches during antagonist infusion and after cKP10 bolus", "type": "in vivo, dog", "details": "n = 6", "from_the_text": "Thirteen adult anestrous Beagle bitches were used for this study. Six dogs with a median age of 89 months (range 43–122 months) were used as control group, receiving cKP10 without an antagonist. Eight dogs with a median age of 52 months (range 31–116 months) were used for the antagonist experiments. One dog was first used in the control group and 12 months later for the antagonist experiments. Of the eight dogs used for the antagonist experiments, four received p271, p354, and p356. In two of the eight dogs both p354 and p356 were tested, while in the remaining two dogs only p271 was tested, in order to test every antagonist in 6 dogs. The time between testing of different kisspeptin antagonists was at least 5 days (range 5–15 days) to ensure that there were no peptide residues. Kisspeptin antagonist p234 per se was not tested in vivo because p271 is in fact p234 with a penetratin tag to enhance passage across the blood-brain barrier, as has been described for use with peripheral administration.\nKisspeptin antagonists (50 μg/kg/h) were administered continuously for three hours via a catheter in the cephalic vein. Two hours after the start of the infusion, a single bolus of cKP10 (0.5 μg/kg) was administered intravenously. Blood samples were collected from the jugular vein by venipuncture at -40 min and 0 min before the antagonist infusion, and then every 30 min for two hours. After the administration of cKP10, blood samples were collected at 10, 20, 40, and 60 min (i.e., 130, 140, 160, and 180 min after the start of the antagonist infusion).\nAs a control, KP stimulation tests (without the administration of a kisspeptin antagonist) were performed in six dogs. Blood samples were collected from the jugular vein by venipuncture at -40 min and 0 min before, and then at 10, 20, 40, and 60 min after administration of cKP10 (0.5 μg/kg). Plasma LH concentrations were measured in all blood samples.\nPlasma LH concentrations were measured with a heterologous radioimmunoassay validated for the dog, as described previously. The intra- and interassay CVs for values above 0.5 μg/l were 2.3 and 10.5%, respectively, and the limit of quantitation was 0.3 μg/l.\nIn both groups of dogs (experimental and control), the basal plasma LH concentration was calculated for each dog as the mean of the values at –40 and 0 min before cKP10 or antagonist administration. All LH values that exceeded the mean of all basal samples plus 3 SD were attributed to pulsatile secretion and were treated as outliers and excluded from statistical analysis. Log transformation of plasma LH concentrations was used because data were not normally distributed. A linear mixed model was used to analyze differences in plasma LH concentrations before and after KP10, with or without a kisspeptin antagonist (group effects: p271, p354, p356, and controls), with Bonferroni correction. P<0.05 was considered significant."}, "kisspeptin receptor": {"system": "kisspeptin receptor", "details": "ref unpublished data; cited from earlier work", "description": "The following peptides were tested for antagonistic properties on the kisspeptin receptor: p234 ((D-Ala)-Asn-Trp-Asn-Gly-Phe-Gly-(D-Trp)-Arg-Phe-NH2), p271 (Arg-Arg-Met-Lys-Trp-Lys-Lys-Tyr-(D-Ala)-Asn-Trp-Asn-Gly-Phe-Gly-(D-Trp)-Arg-Phe-NH2), p354 ((D-Ala)-Tyr-Asn-Phe-Asn-Gly-Phe-Gly-(D-Trp)-Arg-Phe-NH2), and p356 ((D-Ala)-Tyr-Asn-Trp-Asn-Gly-Phe-Gly-(D-Trp)-Lys-Phe-NH2). Peptide 354 and p356 are next generation analogs refining p234."}, "human GPR54 [1]": {"target": "T1, human GPR54 (Homo sapiens, UniProt Q969F8)", "T1 sequence (Q969F8 whole entry)": "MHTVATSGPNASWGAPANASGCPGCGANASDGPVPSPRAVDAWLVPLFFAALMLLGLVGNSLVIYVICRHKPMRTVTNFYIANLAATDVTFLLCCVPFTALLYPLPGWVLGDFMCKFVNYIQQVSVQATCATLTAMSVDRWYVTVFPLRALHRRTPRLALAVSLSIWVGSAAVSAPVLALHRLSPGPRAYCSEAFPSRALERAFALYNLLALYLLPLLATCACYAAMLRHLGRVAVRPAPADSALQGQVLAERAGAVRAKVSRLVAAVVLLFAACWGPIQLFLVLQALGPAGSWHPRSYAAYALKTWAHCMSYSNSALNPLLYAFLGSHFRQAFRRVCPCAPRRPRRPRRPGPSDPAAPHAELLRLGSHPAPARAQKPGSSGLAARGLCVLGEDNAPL", "test": "Flow cytometric calcium flux assay, response to peptide alone (agonist / intrinsic activity)", "type": "cell-based", "parameters": "host or cells: rat hematopoietic CHEM1 cells expressing endogenous Galpha15", "description": "In vitro analyses of the effects of kisspeptin and kisspeptin antagonists, were performed using HT[…] cells (rat hematopoietic CHEM1 cells expressing endogenous Gα15 and, stably expressing the human GPR54 receptor (Millipore BV, the Netherlands), CHEM1-GPR54. Cells were counted and suspended in HBSS+++ at a concentration of 5*10^6 cells/ml. To load the cells with the fluorescent dye ester they were incubated in HBSS+++ adjusted to a concentration of 2 μM Fluo-3 AM (Molecular Probes, Life Technologies, the Netherlands) for 1h at 37°C under agitation in the dark. After incubation, the cells were washed by adding HBSS+++ to a volume of 10 ml followed by centrifugation (5 min, 150 x g) to remove excess of Fluo-3AM. […] Thereafter the tube was removed briefly and 25 μl peptide (see below) was added, after which aspiration and analysis continued. For statistical analyses fluorescent data recorded during the time interval 30-60 seconds after initiation of measurement were used. […] Experiments were performed 3 times. Representative flow cytometry results are depicted in Fig 1. […] We then assessed whether these antagonists could compete with KP10 for its receptor. […] For this purpose 25 μl quantities of the antagonists were added to 200 μl of Fluo-3 AM labelled cells (10^6 cells/ml) and incubated for 15 min. […] Peptides p354 and p356 were tested three times with both human and canine KP10; while peptides p234 and p271 were tested three times with human KP10 and once with canine KP10. […] A multivariate general linear model was set up to analyze differences in calcium response between the different concentrations, with Dunnett's test as a post hoc procedure for the antagonists and Bonferroni's test for the agonists."}, "human GPR54 [2]": {"target": "T1, human GPR54", "test": "Flow cytometric calcium flux assay, KP10-induced response after 15 min pre-incubation with antagonist", "type": "cell-based", "parameters": "host or cells: rat hematopoietic CHEM1 cells expressing endogenous Galpha15", "details": "10^-5 M; 10^-8 M KP10; P<0.001; ascribed to intrinsic response, not antagonism", "description": "In vitro analyses of the effects of kisspeptin and kisspeptin antagonists, were performed using HT[…] cells (rat hematopoietic CHEM1 cells expressing endogenous Gα15 and, stably expressing the human GPR54 receptor (Millipore BV, the Netherlands), CHEM1-GPR54. Cells were counted and suspended in HBSS+++ at a concentration of 5*10^6 cells/ml. To load the cells with the fluorescent dye ester they were incubated in HBSS+++ adjusted to a concentration of 2 μM Fluo-3 AM (Molecular Probes, Life Technologies, the Netherlands) for 1h at 37°C under agitation in the dark. After incubation, the cells were washed by adding HBSS+++ to a volume of 10 ml followed by centrifugation (5 min, 150 x g) to remove excess of Fluo-3AM. […] Thereafter the tube was removed briefly and 25 μl peptide (see below) was added, after which aspiration and analysis continued. For statistical analyses fluorescent data recorded during the time interval 30-60 seconds after initiation of measurement were used. […] We then assessed whether these antagonists could compete with KP10 for its receptor. […] For this purpose 25 μl quantities of the antagonists were added to 200 μl of Fluo-3 AM labelled cells (10^6 cells/ml) and incubated for 15 min. […] Peptides p354 and p356 were tested three times with both human and canine KP10; while peptides p234 and p271 were tested three times with human KP10 and once with canine KP10. To analyze the effects of different concentrations of the KP antagonists on the calcium response due to KP10 addition, the differences in fluorescence before and after KP10 were calculated (the calcium response). The calcium response ratios were calculated as the calcium response of the CHEM1-GPR54 cells pre-incubated with different concentrations of KP antagonist and the control (the calcium response of the cells without KP antagonist). These calcium response ratios were log transformed and used for further analysis by univariate analysis of variance, with the Dunnett's test as post hoc test. The calcium response ratios were set as dependent variables and the different concentrations of the antagonists and the two types of KP10 were used as fixed factors. The residuals were normally distributed."}, "[3]": {"details": "antagonist 50 μg/kg/h iv, cKP10 0.5 μg/kg iv"}}, "note": "Square brackets hold non-standard residues; d marks the D form. Ends that are not written are not given here.", "data": [{"substance": "[dA]YNWNGFG[dW]KF-NH2 [p356]", "values": [{"measurement": "Median (and range) plasma LH, t = 30", "setting": "plasma LH concentration; 30 min of antagonist infusion 50 μg/kg/h iv", "value": "4.1 (2.4–12.8) μg/L"}, {"measurement": "Median (and range) plasma LH, t = 60", "setting": "plasma LH concentration; 60 min of antagonist infusion 50 μg/kg/h iv", "value": "3.9 (2.2–7.7) μg/L"}, {"measurement": "Median (and range) plasma LH, t = 90", "setting": "plasma LH concentration; 90 min of antagonist infusion 50 μg/kg/h iv", "value": "4.5 (2.8–6.7) μg/L"}, {"measurement": "Median (and range) plasma LH, t = 120", "setting": "plasma LH concentration; 120 min of antagonist infusion 50 μg/kg/h iv, before cKP10", "value": "4.9 (2.1–10.4) μg/L"}, {"measurement": "median maximum increment in plasma LH concentration after cKP10 during antagonist administration", "setting": "plasma LH concentration; [3]", "value": 8.1, "unit": "µg/L"}, {"measurement": "range of maximum increment in plasma LH concentration after cKP10 during antagonist administration", "setting": "plasma LH concentration; [3]", "value": "6.3 to 18.3", "unit": "µg/L"}, {"measurement": "Median (and range) plasma LH, t = 130 / t = 10*", "setting": "plasma LH concentration; antagonist infusion 50 μg/kg/h iv, 10 min after cKP10 0.5 μg/kg iv", "value": "12.8 (9.1–23.1) μg/L"}, {"measurement": "Median (and range) plasma LH, t = 140 / t = 20*", "setting": "plasma LH concentration; antagonist infusion 50 μg/kg/h iv, 20 min after cKP10 0.5 μg/kg iv", "value": "8.7 (7.1–13.4) μg/L"}, {"measurement": "Median (and range) plasma LH, t = 180 / t = 60*", "setting": "plasma LH concentration; antagonist infusion 50 μg/kg/h iv, 60 min after cKP10 0.5 μg/kg iv", "value": "4.7 (3.6–12.8) μg/L"}, {"measurement": "Median (and range) plasma LH, Basal", "setting": "plasma LH concentration; before antagonist infusion (mean of -40 and 0 min per dog)", "value": "4.3 (2.8–6.0) μg/L"}, {"measurement": "effect on basal plasma LH concentration", "setting": "plasma LH concentration; continuous iv 50 μg/kg/h, anestrous bitches", "value": "did not cause significant alterations"}, {"measurement": "binding and inhibition of kisspeptin action on inositol generation, potency range", "setting": "kisspeptin receptor", "value": "nanomolar range"}, {"measurement": "intrinsic calcium response at highest concentration", "setting": "human GPR54 [1]; 10^-5 M, P = 0.001", "value": "clear calcium response"}, {"measurement": "pharmacological character on CHEM1-GPR54 cells", "setting": "human GPR54 [1]; authors' conclusion", "value": "partial agonist"}, {"measurement": "calcium response ratio versus control at highest concentration", "setting": "human GPR54 [2]", "value": "smaller than the negative control"}]}]}
